In paper PMC8328489, “Automated Synthesis and Initial Evaluation of (4′-Amino-5′,8′-difluoro-1′H-spiro[piperidine-4,2′-quinazolin]-1-yl)(4-[^18F]fluorophenyl)methanone for PET/MR Imaging of Inducible Nitric Oxide Synthase” (Molecular Imaging, 2021):

Assays:
[1] = Log P measurement (1-octanol/phosphate buffer, UV); assay type: physicochemical; details: 1-octanol / 0.02 M phosphate buffer; 1-octanol / phosphate buffer pH 7.4
Experimental: The partition coefficient of FBAT, determined between 1-octanol and 0.02 M phosphate buffer at pH 7.4, was measured by UV spectrophotometer (SPARK 10 M from Tecan) at wavelength 230 nm.

[2] = tested on: murine microglial BV2 cells; test: In vitro [^18F]FBAT uptake assay; assay type: cell-based
Experimental: BV2 cells were cultured as described above, washed three times with fresh medium, pretreated with a selective iNOS inhibitor, aminoguanidine (AMG), (0, 1, or 0.1 mM) for 1 h, and then treated with cell culture media containing LPS and the inhibitor. At the indicated time points, the cells were washed thrice with fresh cell culture media, then incubated in fresh cell culture media continuing the radiotracer [^18F]FBAT at 0.37 MBq/mL for 15, 30, or 60 min, harvested by gentle scraping, and pelleted by centrifugation at 1500 g for 2 min. The weight of the cell pellet and 0.1 mL of the radioactive supernatant was determined. A Packard 5500 gamma counter (PerkinElmer, Billerica, MA, USA) was used to quantify radioactivity as cpm/g cells or cpm/mL media, respectively. Cell-to-medium radioactivity concentration ratios were calculated and plotted over time to evaluate the kinetics of accumulation of the radiotracer.
iNOS is the enzyme responsible for NO generation in BV2 cells; therefore, accumulation of [^18F]FBAT in BV2 cells before or after iNOS inhibitor versus NO production was also assessed.

[3] = Radiolabeled metabolites in blood plasma (radio-HPLC); assay type: in vivo, Sprague-Dawley rats; details: rat, i.v.
Experimental: Adult Sprague-Dawley rats (n = 3) were anesthetized with 2% isoflurane (in oxygen) and injected with 194.87 MBq ± 22.61 MBq of [^18F]FBAT in the tail vein. Plasma was extracted from heparinized blood samples (0.25 mL) with 3x volumes of acetonitrile and analyzed with radio-HPLC; mobile phase: 40% MeCN/0.10% TEA in water at 1 mL/min. This method affords retention time of [^18F]FBAT which was 18.1–18.9 min. Fractions of [^18F]FBAT and metabolites were calculated for each sample based on the area under each peak. The radioactivity concentration in the whole blood and plasma was assayed using a gamma counter (Cobra, Packard, CT).

## NC1=NC2(CCN(C(=O)c3ccc([18F])cc3)CC2)Nc2c(F)ccc(F)c21 [[^18F]FBAT, (4′-amino-5′,8′-difluoro-1′H-spiro[piperidine-4,2′-quinazolin]-1-yl)(4-[^18F]fluorophenyl)methanone]
[1]
  logP: 1.4
[2]; 60 min
  [^18F]FBAT accumulation, LPS-induced vs control BV2 cells: more than 1.7 fold
[2]; LPS-induced BV2 cells, after 1 h
  cells-per-medium concentration ratio at plateau: 180–200
[2]; control BV2 cells
  cells-per-medium concentration ratio at plateau: ~100
[3]; 120 min after injection
  metabolites fraction in plasma: ~94.02%
[3]; first 5 minutes
  parent compound fraction in plasma: 77.98%
